In patent US11952365B2, “Anti-viral compounds” (Aligos Therapeutics, Inc., priority 2020, dated 2024) one finds CC50, IC50 and EC50 data, which are given here for six molecules.

The nature of data set [1]: in vitro. Conditions: African green monkey, VeroE6 + CP (CC50), Vero E6-eGFP cells with CP-100356, absence of virus, MTS.
Data set [2] concerns the target 3CLpro (Severe acute respiratory syndrome coronavirus 2, UniProt P0DTD1). Kind of data set: SARS-CoV-2 3CLpro protease assay (duplex, SAMDI-MS). In kind it is biochemical. Set-up: For the duplex assay, 3CLpro and HRV3C was added. Particulars: 3CLpro, 30 mins preincubation, class symbols; read-out: SARS-Cov-2 IC50.
The test system of data set [3] is SARS-CoV-2-GHB-03021/2020. Kind of data set: SARS-CoV-2 Infection Model in Huh7 Cells. Conditions: Severe acute respiratory syndrome coronavirus 2, Huh-7, 96 h, SARS-CoV-2, day 4 p.i., MTS. In kind it is cell-based.
A short description of data set [4]: Cytotoxicity plates without OC43 virus (cell-titer-glo). Particulars: human; HeLa cells without OC43 virus, class symbols. The format is cell-based, human. In short, it runs like this:
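HeLa cells seeded overnight, then treated with serially diluted compounds in 2% FBS EMEM, uninfected, in parallel with the OC43 antiviral plates. Incubated 6 days at 33 °C; viability read by CellTiter-Glo luminescence.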

In data set [5] the target is HRV3C (Human rhinovirus 14, UniProt P03303). Kind of data set: HRV3C protease assay (duplex, SAMDI-MS). In kind it is biochemical, HRV. Conditions: HRV3C, 30 mins preincubation, read-out: HRV IC50. The procedure, abridged:
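Steps: enzymes (HRV3C plus 3CLpro) and compound preincubated 30 min; two peptide substrates added; 30 min reaction at ambient temperature; formic acid quench; SAMDI capture and reflector-positive TOF analysis. Product quantified against internal standard peptides. IC50 by four-parameter equation.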

The target in data set [6] is T1, human cathepsin L (Homo sapiens, UniProt P07711).
T1 construct: purchased R&D Systems
Kind of data set: cathepsin L assay. Conditions: 10 pM human cathepsin L, Z-FR-AMC 2 μM, class symbols. In kind it is biochemical. In short, it runs like this: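 Human cathepsin L at 10 pM was preincubated 30 min with compound, then reaction started with Z-FR-AMC (2 μM final). Fluorescence (355/460 nm) read every 2 min for 30 min; IC50 from four-parameter curve fit.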

Data set [7] relates to human beta-coronavirus OC43. Kind of data set: microbe, parasite or virus in culture. In kind it is cell-based. Conditions: OC43 in HeLa cells, 6 days at 33° C., class symbols, read-out: EC50.
A short description of data set [8]: in vitro. Conditions: human.
The subject of data set [9] is SARS-CoV-2-GHB-03021/2020. Kind of data set: microbe, parasite or virus in culture. The format is cell-based. Conditions: Severe acute respiratory syndrome coronavirus 2, Vero C1008, 96 h; read-out: VeroE6 + CP (EC50).
[10] abbreviates: Betacoronavirus 1, OC43, HeLa, 144 h.

Like-named read-outs stand apart in the source and are kept apart here. A value given as a limit tells only on which side of the number the result lay.

With `COc1cccc2[nH]c(C(=O)N3C[C@@H]4CCC[C@@H]4[C@H]3C(=O)NC(CN3CCCC3=O)C(=O)C(=O)NC3CC3)cc12` (single isomer, unassigned) [Compound 113A, (1S,3aR,6aS)—N—((S*)-4-(cyclopropylamino)-3,4-dioxo-1-(2-oxopyrrolidin-1-yl)butan-2-yl)-2-(4-methoxy-1H-indole-2-carbonyl)octahydrocyclopenta[c]pyrrole-1-carboxamide], the CC50 in [1] (numeric bounds) and in data set [8] was over 50 µM each time. For the same molecule, the IC50 is 0.2 to 2 µM in data set [2], over 10 µM in data set [5] (bound) and at least 10 µM in [6]. Besides, the EC50 in data set [3] (class symbols) lay within 10 to 100 µM; in [7] (setting [10]), 1 to 10 µM; in data set [9], 10 to 100 µM. For the same molecule, the CC50 at 6 days in [4] was over 10 µM.
Consider `COc1cccc2[nH]c(C(=O)N3C[C@@H]4CCC[C@@H]4[C@H]3C(=O)N[C@H](CN3CCCC3=O)C(=O)C(=O)NC3CC3)cc12` (single isomer, unassigned) [Compound 113B], for which the CC50 in [1] (numeric bounds) and in data set [8] was over 50 µM throughout. Besides, the IC50 in data set [2] is 2 to 20 µM; in data set [5] (class symbols) it was 2 to 20 µM; in data set [6], at least 10 µM. Moreover, the figures for the EC50 in data set [3] (numeric bounds), in [7] (setting [10]) and in data set [9] were over 50 µM, 1 to 10 µM and 10 to 100 µM, respectively. This molecule gave a CC50 at 6 days in [4] of over 10 µM.
Regarding `O=C(NC1CC1)C(=O)C(CC1CC2(CC2)NC1=O)NC(=O)[C@@H]1[C@H]2CCC[C@H]2CN1C(=O)c1cc2c(Cl)cc(Cl)cc2[nH]1` (single isomer, unassigned) [Compound 116A, (1S,3aR,6aS)—N-(4-(cyclopropylamino)-3,4-dioxo-1-((R*)-5-oxo-4-azaspiro[2.4]heptan-6-yl)butan-2-yl)-2-(4,6-dichloro-1H-indole-2-carbonyl)octahydrocyclopenta[c]pyrrole-1-carboxamide], the CC50 is over 50 µM in [1] (numeric bounds) and over 10 µM in data set [8]. The IC50 in [2] is 0.02 to 0.2 µM; in data set [5] (class symbols) it was 0.2 to 2 µM; in data set [6], at least 10 µM. The EC50 in data set [3] (class symbols) is under 1 µM; in data set [7] it was 0.1 to 1 µM; in data set [9], 1 to 10 µM. This molecule also yielded a CC50 at 6 days in data set [4] of over 10 µM.
`O=C(NCc1ccccc1)C(=O)C(C[C@@H]1CCNC1=O)NC(=O)[C@@H]1C[C@@H](c2ccccc2)CN1C(=O)c1cc2ccccc2[nH]1` (stereo partly drawn) [Compound 7]: the CC50 in [1] (class symbols) and in [8] was over 10 µM throughout. The IC50 in [2] is 0.2 to 2 µM; in [5] (class symbols), 0.2 to 2 µM; in [6], under 0.1 µM. Moreover, the EC50 in data set [3] (class symbols) lay within 1 to 10 µM; in data set [7] (setting [10]) it was 0.1 to 1 µM; in data set [9], 1 to 10 µM. The same molecule returned a CC50 at 6 days in data set [4] of over 10 µM.
For the molecule `O=C[C@H](C[C@@H]1CCCNC1=O)NC(=O)[C@@H]1[C@H]2CCC[C@H]2CN1C(=O)c1cc2ccccc2[nH]1` [Compound 15, (1S,3aR,6aS)-2-(1H-indole-2-carbonyl)-N—((S)-1-oxo-3-((S)-2-oxopiperidin-3-yl)propan-2-yl)octahydrocyclopenta[c]pyrrole-1-carboxamide], the CC50 in data set [1] (numeric bounds) and in data set [8] was over 100 µM throughout. Besides, the IC50 in data set [2] was under 0.02 µM; in data set [5] (class symbols), 0.02 to 0.2 µM; in data set [6], 1 to 10 µM. Besides, the EC50 fell in the range of 1 to 10 µM in data set [3] (class symbols), 0.1 to 1 µM in data set [7] (setting [10]) and 1 to 10 µM in [9]. Further, in data set [4], the CC50 at 6 days was over 10 µM.
With `COc1cccc2[nH]c(C(=O)N3C[C@@H]4CCC[C@@H]4[C@H]3C(=O)NC(C[C@@H]3CCNC3=O)C(=O)C(=O)NCc3ccccc3)cc12` (stereo partly drawn) [Compound 16, 3-[[(1S,3aR,6aS)-2-(4-methoxy-1H-indole-2-carbonyl)-hexahydro-1H-cyclopenta[c]pyrrol-1-yl]formamido]-N-benzyl-2-oxo-4-[(3S)-2-oxopyrrolidin-3-yl]butanamide], the CC50 in data set [1] (class symbols) and in [8] was over 10 µM in each case. Moreover, the figures for the IC50 in data set [2], in [5] (class symbols) and in [6] were 0.02 to 0.2 µM, 0.2 to 2 µM and at least 10 µM, respectively. The EC50 fell in the range of 1 to 10 µM in data set [3] (class symbols), 0.1 to 1 µM in data set [7] (setting [10]) and 1 to 10 µM in data set [9]. For the same molecule, in data set [4], the CC50 at 6 days was over 10 µM.

The IC50 is the point on the concentration scale where inhibition reaches its midpoint. In general, EC50 refers to the concentration needed to bring the measured effect to its halfway point.
